Measurements taken from ChEMBL document CHEMBL1268913, “Carbocycles related to oseltamivir as influenza virus group-1-specific neuraminidase inhibitors. Binding to N1 enzymes in the context of virus-like particles” (J Med Chem, 2010).
pEC50, pIC50, pKi: −log10 of the molar value.

system: unidentified influenza virus; experiment: Antiviral activity against avian influenza virus H5N1; type: functional, organism-based

SMILES | pEC50
CCC(O)c1cn([C@H]2C=C(C(=O)O)O[C@@H]([C@H](O)[C@H](O)CO)[C@@H]2NC(C)=O)nn1 (some centres not stated) | 5.19

molecular target: Neuraminidase (Influenza A virus, UniProt B4URF0); experiment: Inhibition of influenza A nuraminidase N1
Sequence (B4URF0 whole entry): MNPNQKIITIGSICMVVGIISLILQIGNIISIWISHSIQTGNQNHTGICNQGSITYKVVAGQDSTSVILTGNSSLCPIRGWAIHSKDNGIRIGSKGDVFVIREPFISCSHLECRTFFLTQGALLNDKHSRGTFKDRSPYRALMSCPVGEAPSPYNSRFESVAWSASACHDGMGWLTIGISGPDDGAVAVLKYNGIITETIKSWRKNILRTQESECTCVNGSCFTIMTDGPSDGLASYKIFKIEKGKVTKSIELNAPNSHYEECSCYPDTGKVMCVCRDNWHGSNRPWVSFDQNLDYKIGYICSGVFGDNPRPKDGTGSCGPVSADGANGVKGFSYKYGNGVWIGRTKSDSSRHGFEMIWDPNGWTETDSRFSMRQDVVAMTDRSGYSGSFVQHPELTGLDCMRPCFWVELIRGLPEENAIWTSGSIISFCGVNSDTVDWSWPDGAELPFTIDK

SMILES | pKi | pIC50
CCC(CC)O[C@@H]1CC(C(=O)O)=C[C@H](n2cc(C(O)CC)nn2)[C@H]1NC(C)=O (some centres not stated) | 7.14 | 
CCC(CC)O[C@@H]1CC(C(=O)O)=C[C@H](n2cc([C@]3(O)CC[C@H]4[C@@H]5CCc6cc(O)ccc6[C@H]5CC[C@@]43C)nn2)[C@H]1NC(C)=O | 5.24 | 
CCC(CC)O[C@@H]1CC(C(=O)O)=C[C@H](n2cc(C3(O)CCCCC3)nn2)[C@H]1NC(C)=O |  | 5.32
CCC(CC)O[C@@H]1CC(C(=O)O)=C[C@H](n2cc(CCCO)nn2)[C@H]1NC(C)=O | 6.34 | 
CC(=O)N[C@H]1[C@H]([C@H](O)[C@H](O)CO)OC(C(=O)O)=C[C@@H]1O [NEU5AC2EN] | 5.23 | 
CCC(CC)O[C@@H]1CC(C(=O)O)=C[C@H](NC(=N)N)[C@H]1NC(C)=O | 9.34 | 
CCC(CC)O[C@@H]1CC(C(=O)O)C=C(n2cc(CCc3ccccc3)nn2)[C@H]1NC(C)=O (mixture of isomers) | 4.22 | 
CCC(CC)O[C@@H]1CC(C(=O)O)=C[C@H](n2cc(CCc3ccccc3)nn2)[C@H]1NC(C)=O | 5.92 | 
CCC(CC)O[C@@H]1CC(C(=O)O)C=C(n2cc(C(C)(C)O)nn2)[C@H]1NC(C)=O (mixture of isomers) | 4.72 | 
CCC(CC)O[C@@H]1CC(C(=O)O)=C[C@H](n2cc(C3(O)CCCC3)nn2)[C@H]1NC(C)=O |  | 4.96
CCC(CC)O[C@@H]1CC(C(=O)O)=C[C@H](n2cc(C(C)(C)O)nn2)[C@H]1NC(C)=O | 6.89 | 
